The source of these data is patent publication US20080269298A1, “Benzimidazol-1-YL-thiophene compounds for the treatment of cancer” (priority 2002, published 2008).

Molecules are shown by their SMILES.

For assay [1], the target named is T1, PLK1 kinase domain (Homo sapiens, UniProt P53350).
T1 construct: made in house; host or cells: baculovirus-infected T. ni insect cells
The experiment in a line: Assay for Inhibition of PLK1 (SPA enzyme activity). It is filed as biochemical. The note with it: 2 μM ATP, read-out: Ave pIC50 PLK Enzyme Inhibition (converted). How it is done:
All procedures were performed at 4° C. Cells were lysed in so mM HEPES, 200 mM NaCl, so mM imidazole, 5% glycerol; pH 7.5. The homogenate was centrifuged at 14K rpm in a SLA-1500 rotor for 1 hr and the supernatant filtered through a 1.2 micron filter. The supernatant was loaded onto a Nickel chelating Sepharose (Amersham Pharmacia) column and washed with lysis buffer. Protein was eluted using 20%, 30% and 100% buffer B steps where buffer B is 50 mM HEPES, 200 mM NaCl, 300 mM imidazole, 5% glycerol; pH 7.5. Fractions containing PLK were determined by SDS-PAGE. Fractions containing PLK were diluted five-fold with so mM HEPES, 1 mM DTT, 5% glycerol; pH 7.5, then loaded on an SP Sepharose (Amersham Pharmacia) column. After washing the column with so mM HEPES, 1 mM DTT, 5% glycerol; pH 7.5, PLK was step eluted with so mM HEPES, 1 mM DTT, 500 mM NaCl; 5% glycerol; pH 7.5. PLK was concentrated using a 10 kDa molecular weight cutoff membrane and then loaded onto a Superdex 200 gel filtration (Amersham Pharmacia) column equilibrated in 25 mM HEPES, 1 mM DTT, 500 mM NaCl, 5% glycerol; pH 7.5. Fractions containing PLK were determined by SDS-PAGE. PLK was pooled, aliquoted and stored at −80° C. Samples were quality controlled using mass spectrometry, N-terminal sequencing and amino acid analysis.
B. Enzyme activity+/−inhibitors was determined as follows:
Compounds were added to the plate (1 μl in […]). […] Reaction Mix B is prepared as follows at 4° C.: • Reaction Mix B (Enzyme Mix) • 25 mM HEPES, pH 7.2 • 15 mM MgCl2 • 0.15 mg/ml BSA • 2 mM DTT • 2-10 nM PLK1 kinase domain
Reaction Mix A (20 μl) is added per well. Reaction Mix B (20 μl) is added per well. Incubate 1.5 hrs. at RT. The enzymatic reaction is stopped with 175 μl of SPA/EDTA bead mix (29 mM EDTA, 2.5 mg/ml Streptavidin-coated SPA in Standard Dulbecco's PBS (without Mg^2+ and Ca^2+), 60 μM ATP). Plates are sealed spun (after a 1 hr incubation at RT) at 1,000×g for 7 min or settled overnight, then plates counted in Packard TopCount for 30 seconds/well.

Assay [2] has as its system lung (H460) tumor cell line. The experiment in a line: Methylene Blue Growth Inhibition Assay, H460. It is filed as cell-based. The note with it: Homo sapiens, NCI-H460, 72 h; Cell Line H460, 3 days; read-out: MeB IC50. How it is done: (§1) Normal Human foreskin fibroblasts (HFF) and human colon (HCT116, RKO), lung (H460), prostate (PC3), and breast tumor (MCF7) cell lines were cultured in high glucose DMEM (Life Technologies) containing 10% fetal bovine serum (FBS) at 37° C. in a humidified 10% CO2, 90% air incubator. Cells were harvested using trypsin/EDTA, counted using a haemocytometer, and plated in 100 μl of the appropriate media, at the following densities, in a 96-well tissue culture plate (Falcon 3075): HFF 5,000 cells/well, HCT116 3,000 cells/well, RKO 2,500 cells/well, H460 2,000 cells/well, PC3 8,000 cells/well, MCF7 4,000 cells/well. The next day, compounds were diluted in DMEM containing 100 μg/ml gentamicin, at twice the final required concentration, from 10 mM stock solutions in DMSO. 100μ/well of these dilutions were added to the 100 μl of media currently on the cell plates. Medium containing 0.6% DMSO was added to control wells. Compounds diluted in DMEM were added to all cell lines. The final concentration of DMSO in all wells was 0.3%. Cells were incubated at 37° C., 10% CO2 for 3 days. Medium was removed by aspiration. Cell biomass was estimated by staining cells with […] per well methylene blue (Sigma M9140, 0.5% in 50:50 ethanol:water), and incubation at room temperature for at least 30 minutes. Stain was removed, and the plates rinsed under a gentle stream of water, and air-dried. To release stain from the cells 100 μl of solubilization solution was added (1% N-lauroyl sarcosine, Sodium salt, Sigma L5125, in PBS), and plates were shaken gently for about 30 minutes. Optical density at 620 nm was measured on a microplate reader. Percent inhibition of cell growth was calculated relative to vehicle treated control wells. Concentration of compound that inhibits 50% of cell growth (IC50) was interpolated using nonlinear regression (Levenberg-Marquardt) and the equation, y=Vmax*(1-(x/(K+x)))+Y2, where “K” was equal to the IC50. In Table 1, +=10−>30 uM; ++=1−10 uM: +++=<1 uM.

The test system of assay [3] is colon (HCT116) tumor cell line. The experiment in a line: Methylene Blue Growth Inhibition Assay, HCT116. The settings on record: Homo sapiens, HCT-116, 72 h; Cell Line HCT116, 3 days; read-out: MeB IC50. It is filed as cell-based. The method, then: as §1
Assay [4] concerns Normal Human foreskin fibroblasts (HFF). The experiment in a line: Methylene Blue Growth Inhibition Assay, HFF. It counts as cell-based. The settings on record: 72 h, Cell Line HFF, 3 days, read-out: MeB IC50. The method, then:
as §1

For assay [5], the system named is breast tumor (MCF7) cell line. The experiment in a line: Methylene Blue Growth Inhibition Assay, MCF7. It is filed as cell-based. The note with it: Homo sapiens, 72 h; Cell Line MCF7, 3 days; read-out: MeB IC50. How it is done: as §1
Assay [6] relates to prostate (PC3) tumor cell line. The experiment in a line: Methylene Blue Growth Inhibition Assay, PC3. It counts as cell-based. The note with it: Homo sapiens, 72 h; Cell Line PC3, 3 days; read-out: MeB IC50. The method, then: as §1
In assay [7] the test system is colon (RKO) tumor cell line. The experiment in a line: Methylene Blue Growth Inhibition Assay, RKO. It counts as cell-based. The settings on record: Homo sapiens, 72 h, 3 days, read-out: MeB IC50. How it is done: as §1

T1 sequence (P53350 21-346): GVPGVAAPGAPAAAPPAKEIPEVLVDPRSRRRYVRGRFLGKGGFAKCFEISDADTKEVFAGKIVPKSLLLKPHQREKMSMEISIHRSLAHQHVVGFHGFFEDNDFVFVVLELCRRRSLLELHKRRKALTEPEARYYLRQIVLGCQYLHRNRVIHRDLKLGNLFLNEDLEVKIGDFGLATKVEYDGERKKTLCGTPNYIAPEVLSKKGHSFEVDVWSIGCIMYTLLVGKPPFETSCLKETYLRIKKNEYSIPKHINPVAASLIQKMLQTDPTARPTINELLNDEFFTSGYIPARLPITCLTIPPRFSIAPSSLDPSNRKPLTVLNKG

Regarding `COc1cc2ncn(-c3cc(OCc4ccccc4S(C)(=O)=O)c(C(N)=O)s3)c2cc1OC` [Example 99, 5-(5,6-Dimethoxy-1H-benzimidazol-1-yl)-3-{[2-(methylsulfonyl)benzyl]oxy}thiophene-2-carboxamide], the IC50 in assay [1] is less than 0.1 µM; in assay [2], 1 to 10 µM; in assay [3] it was 1 to 10 µM; in assay [4], more than 10 µM; in assay [5], 1 to 10 µM; in assay [6], more than 10 µM. In addition, the IC50 in assay [7] fell in the range of 1 to 10 µM.

Turning to `NC(=O)c1sc(-n2cnc3ccccc32)cc1NS(=O)(=O)c1ccccc1` [Example 132, 5-(1H-Benzimidazol-1-yl)-3-[(phenylsulfonyl)amino]thiophene-2-carboxamide], the IC50 is less than 0.1 µM in assay [1]; more than 10 µM in assay [2]; more than 10 µM in assay [3]; more than 10 µM in assay [4]; more than 10 µM in assay [5]; more than 10 µM in assay [6]. Moreover, in assay [7], the IC50 was more than 10 µM.

On to `Cc1ccccc1COc1cc(-n2cnc3ccc(Cl)cc32)sc1C(=O)O` [Example 35, 5-(6-Chloro-1H-benzimidazol-1-yl)-3-[(2-methylbenzyl)oxy]thiophene-2-carboxylic acid], for which the IC50 in assay [1] is less than 0.1 µM; in assay [2], more than 10 µM; in assay [3], more than 10 µM; in assay [4], more than 10 µM; in assay [5] it was more than 10 µM; in assay [6] it was more than 10 µM. Also, the IC50 in assay [7] was more than 10 µM.

With `COc1cc2ncn(-c3cc(OCC4CCCCO4)c(C(N)=O)s3)c2cc1OC` (stereo not drawn) [Example 112, 5-(5,6-Dimethoxy-1H-benzimidazol-1-yl)-3-(tetrahydro-2H-pyran-2-ylmethoxy)thiophene-2-carboxamide], the IC50 in assay [1] was 0.1 to 10 µM; in assay [2] it was 1 to 10 µM; in assay [3], more than 10 µM; in assay [4], more than 10 µM; in assay [5] it was more than 10 µM; in assay [6], more than 10 µM. Moreover, the IC50 in assay [7] was in the range of 1 to 10 µM.

As to `COc1cc2ncn(-c3cc(OCc4ccccc4C=O)c(C(N)=O)s3)c2cc1OC` [Example 110, 5-(5,6-Dimethoxy-1H-benzimidazol-1-yl)-3-[(2-formylbenzyl)oxy]thiophene-2-carboxamide], the IC50 in assay [1] was less than 0.1 µM; in assay [2], 1 to 10 µM; in assay [3], less than 1 µM; in assay [4], more than 10 µM; in assay [5], 1 to 10 µM; in assay [6], 1 to 10 µM. The IC50 in assay [7] is less than 1 µM.

Consider `CN(c1ccccc1)c1cc(-n2cnc3ccccc32)sc1C(N)=O` [Example 131, 5-(1H-Benzimidazol-1-yl)-3-[methyl(phenyl)amino]thiophene-2-carboxamide], for which the IC50 in assay [1] is 0.1 to 10 µM; in assay [2] it was 1 to 10 µM; in assay [3], 1 to 10 µM; in assay [4], more than 10 µM; in assay [5], 1 to 10 µM; in assay [6], more than 10 µM. Besides, the IC50 in assay [7] lay in the range of 1 to 10 µM.

Consider `NC(=O)c1sc(-n2cnc3ccc(OCC(F)(F)F)cc32)cc1OCc1ccccc1C(F)(F)F` [Example 87, 5-[6-(2,2,2-Trifluoroethoxy)-1H-benzimidazol-1-yl]-3-{[2-(trifluoromethyl)benzyl]oxy}thiophene-2-carboxamide], for which the IC50 in assay [1] is less than 0.1 µM; in assay [2] it was 1 to 10 µM; in assay [3], 1 to 10 µM; in assay [4] it was more than 10 µM; in assay [5], 1 to 10 µM; in assay [6], more than 10 µM. In addition, in assay [7], the IC50 lay within 1 to 10 µM.

Turning to `NC(=O)c1sc(-n2cnc3cc(F)c(OCCN4CCOCC4)cc32)cc1OCc1ccccc1C(F)(F)F` [Example 140, 5-[5-Fluoro-6-(2-morpholin-4-ylethoxy)-1H-benzimidazol-1-yl]-3-{[2-(trifluoromethyl)benzyl]oxy}thiophene-2-carboxamide], the IC50 in assay [1] is less than 0.1 µM; in assay [2], 1 to 10 µM; in assay [3], 1 to 10 µM; in assay [4] it was more than 10 µM; in assay [5], 1 to 10 µM; in assay [6] it was 1 to 10 µM. Further, the IC50 in assay [7] is less than 1 µM.

For `COc1cc2ncn(-c3cc(OCc4ccccc4C(F)(F)F)c(C(N)=O)s3)c2cc1OCCN1CCOCC1` [Example 137, 5-(5-(Methyloxy)-6-{[2-(4-morpholinyl)ethyl]oxy}-1H-benzimidazol-1-yl)-3-({[2-(trifluoromethyl)phenyl]methyl}oxy)-2-thiophenecarboxamide], the IC50 is less than 0.1 µM in assay [1]; 1 to 10 µM in assay [2]; less than 1 µM in assay [3]; more than 10 µM in assay [4]; 1 to 10 µM in assay [5]; 1 to 10 µM in assay [6]. Further, the IC50 in assay [7] lay within 1 to 10 µM.

On to `O=C(O)c1sc(-n2cnc3ccc(Cl)cc32)cc1OCc1cccnc1` [Example 72, 5-(6-Chloro-1H-benzimidazol-1-yl)-3-(pyridin-3-ylmethoxy)thiophene-2-carboxylic acid], for which the IC50 in assay [1] is less than 0.1 µM; in assay [2], more than 10 µM; in assay [3], more than 10 µM; in assay [4], more than 10 µM; in assay [5] it was more than 10 µM; in assay [6] it was more than 10 µM. Also, the IC50 in assay [7] was more than 10 µM.

With `O=C(O)c1sc(-n2cnc3ccc(Cl)cc32)cc1OCc1ccc(F)cc1Cl` [Example 70, 5-(6-Chloro-1H-benzimidazol-1-yl)-3-[(2-Chloro-4-fluorobenzyl)oxy]-thiophene-2-carboxylic acid], the IC50 in assay [1] was less than 0.1 µM; in assay [2] it was more than 10 µM; in assay [3], more than 10 µM; in assay [4], more than 10 µM; in assay [5], more than 10 µM; in assay [6], more than 10 µM. Moreover, the IC50 in assay [7] was more than 10 µM.

On to `COc1cc2ncn(-c3cc(OCc4ccc(C(N)=O)cc4)c(C(N)=O)s3)c2cc1OC` [Example 104, 3-{[4-(Aminocarbonyl)benzyl]oxy}-5-(5,6-dimethoxy-1H-benzimidazol-1-yl)thiophene-2-carboxamide], for which the IC50 is less than 0.1 µM in assay [1]; 1 to 10 µM in assay [2]; 1 to 10 µM in assay [3]; more than 10 µM in assay [4]; 1 to 10 µM in assay [5]; more than 10 µM in assay [6]. In addition, the IC50 in assay [7] is 1 to 10 µM.
